Experimental data from patent US6583180B2, “Glucocorticoid receptor modulators” (Abbott Laboratories, priority 2001, dated 2003).

Target: T1, Human glucocorticoid receptors (Homo sapiens, UniProt P04150)
T1 construct: made in house; host or cells: Sf9 insect cells, recombinant baculovirus (BAC-TO-BAC)
T1 sequence (P04150 1-777): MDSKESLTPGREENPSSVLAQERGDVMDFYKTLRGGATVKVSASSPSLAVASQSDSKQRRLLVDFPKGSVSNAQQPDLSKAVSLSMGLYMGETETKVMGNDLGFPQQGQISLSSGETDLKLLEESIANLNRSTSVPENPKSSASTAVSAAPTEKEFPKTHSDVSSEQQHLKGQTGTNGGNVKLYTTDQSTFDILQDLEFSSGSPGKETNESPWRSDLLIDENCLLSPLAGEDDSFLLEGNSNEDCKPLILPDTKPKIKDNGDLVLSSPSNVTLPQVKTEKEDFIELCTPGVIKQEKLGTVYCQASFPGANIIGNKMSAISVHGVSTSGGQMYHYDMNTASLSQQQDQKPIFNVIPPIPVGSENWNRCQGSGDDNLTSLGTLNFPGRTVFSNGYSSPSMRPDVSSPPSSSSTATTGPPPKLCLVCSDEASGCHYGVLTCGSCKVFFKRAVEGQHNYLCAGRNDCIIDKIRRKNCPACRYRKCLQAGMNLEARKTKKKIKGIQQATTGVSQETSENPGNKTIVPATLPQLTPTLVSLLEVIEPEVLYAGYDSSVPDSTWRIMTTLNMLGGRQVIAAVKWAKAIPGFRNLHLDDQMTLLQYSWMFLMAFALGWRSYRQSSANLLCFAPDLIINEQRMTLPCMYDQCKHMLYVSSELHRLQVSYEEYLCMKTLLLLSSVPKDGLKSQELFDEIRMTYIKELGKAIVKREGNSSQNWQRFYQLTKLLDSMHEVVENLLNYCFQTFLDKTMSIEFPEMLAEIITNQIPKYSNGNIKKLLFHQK
Experiment: Radioligand filter binding assay, displacement of 3[H]-dexamethasone from hGR
Settings: read-out: GR Binding (% Inhibition at 1.7 μM)
From the text: Dexamethasone hereafter referred to as dex was purchased from SIGMA. […] Human glucocorticoid receptors were extracted from Sf9 cells infected with a recombinant baculovirus transfer vector containing the cloned hGR genes. Recombinant baculovirus was generated utilizing the BAC-TO-BAC expression system (Life Technologies) in accordance to instruction from the supplier. The hGR coding sequences were cloned into a baculovirus transfer vector by standard techniques. The recombinant baculoviruses expressing hGR were amplified and used to infect Sf9 cells. Infected cells were harvested 48 hrs post infection. […] The concentration of hGR in the extract was measured as specific ^3[H]-dex binding with the G25-assay as described in J. Steroid Biochem. Molec. […] The extract was aliquoted and stored at −70° C.
The filter binding assay: Dilution series of the test compounds and dex as reference were made from 10 mM (1 mM dex) stock solutions in DMSO. 10 μl of the dilutions was added in duplicates to the wells. The cell extracts were diluted 10 fold in EPMo+MTG buffer (1 mM EDTA, HPO4 20 mM (pH8), 6 mM MTG). […] 110 μl of the diluted ^3[H]-dex were added to the wells. The final concentration of hGR in the experiment was estimated to 1 nM. All preparations were made in […] on ice and with +4° C. temperated buffers. The plates were incubated over night at +4° C. (15-20 hours).
The incubation was stopped by filtration through GF/B filter on the Tomtec Cellharvester. The filtration on the Tomtec Cellharvester was programmed as follows: 1) Preparation before filtration with EP buffer (1 mM EDTA 20 mM HPO4 (pH8)) 2×[Wash/Asp 0.6 sec., Asp 0.5 sec.]; 2) Prewet of GF/B filter with EP+PEI buffer (EP buffer, 0.3% Polyethylenimine) [Asp 0.8 sec.]; 3) Filtration/harvesting of the 96-well incubation plate 3×[Wash/Asp 0.6 sec., Asp 0.5 sec.]. The GF/B filter was dried for at least 1 hour at 65° C. A MeltiLex scintillation wax was melted onto the filter with the Microsealer. The filter was placed in a samplebag, which was thereafter trimmed with scissors to fit the filter cassette. The cassette were placed in the Microbeta and measured for 1 min/position, returning ccpm (corrected counts per minute).
b=((bmax−bmin)/(1+(I/IC50)^S))+bminI
The Microbeta-instrument generates the mean cpm (counts per minute) value/minute and corrects for individual variations between the detectors thus generating corrected cpm values.

| SMILES | inhibition at 1.7 µM |
| --- | --- |
| Cc1c(NS(=O)(=O)N(C)C)cccc1N(Cc1ccccc1)Cc1ccccc1 [Example 5, N′-[3-(dibenzylamino)-2-methylphenyl]-N,N-dimethylsulfamide] | 75.2% |
| Cc1c(NS(C)(=O)=O)cccc1N(Cc1ccccc1)Cc1ccc([N+](=O)[O-])cc1 [Example 8, N-{3-[benzyl(4-nitrobenzyl)amino]-2-methylphenyl}methanesulfonamide] | 75.9% |
| Cc1c(NS(C)(=O)=O)cccc1N(Cc1ccccc1)Cc1ccc2c(c1)OCO2 [Example 15, N-{3-[(1,3-benzodioxol-5-ylmethyl)(benzyl)amino]-2-methylphenyl}methanesulfonamide] | 77.9% |
| Cc1c(NS(C)(=O)=O)cccc1N(Cc1ccccc1)Cc1ccc2c(c1)OCCO2 [Example 16, N-{3-[benzyl(2,3-dihydro-1,4-benzodioxin-6-ylmethyl)amino]-2-methylphenyl}methanesulfonamide] | 75.6% |
| COc1ccc(CN(Cc2ccccc2C#N)c2cccc(NS(C)(=O)=O)c2C)c(F)c1 [Example 21, N-{3-[(2-cyanobenzyl)(2-fluoro-4-methoxybenzyl)amino]-2-methylphenyl}methanesulfonamide] | 71.5% |
| Cc1c(NS(C)(=O)=O)cccc1N(Cc1ccccc1Br)C(C#N)c1ccccc1 (stereo not shown) [Example 37, N-(3-{(2-bromobenzyl)[cyano(phenyl)methyl]amino}-2-methylphenyl)methanesulfonamide] | 72.5% |
| C=Cc1c(NS(C)(=O)=O)cccc1N(Cc1ccccc1)Cc1ccccc1 [Example 44, N-[3-(dibenzylamino)-2-vinylphenyl]methanesulfonamide] | 89.2% |
| CCOC(=O)CCNC(=O)c1ccc(Oc2ccc(CN(Cc3ccc(F)cc3F)c3cccc(NS(C)(=O)=O)c3C)cc2)cc1 [Example 68, ethyl N-(4-{4-[((2,4-difluorobenzyl){2-methyl-3-[(methylsulfonyl)amino]phenyl}amino)methyl]phenoxy}benzoyl)-beta-alaninate] | 90.4% |
| Cc1c(NS(C)(=O)=O)cccc1N(Cc1ccc(Oc2ccc(CCCC(=O)O)cc2)cc1)Cc1ccc(F)cc1F [Example 74, 4-(4-{4-[((2,4-difluorobenzyl){2-methyl-3-[(methylsulfonyl)amino]phenyl}amino)methyl]phenoxy}phenyl)butanoic acid] | 97.2% |
| COC(=O)NCCOc1cccc(Oc2ccc(CN(Cc3ccccc3)c3cccc(NS(C)(=O)=O)c3C)cc2)c1 [Example 82, methyl 2-(3-{4-[(benzyl{2-methyl-3-[(methylsulfonyl)amino]phenyl}amino)methyl]phenoxy}phenoxy)ethylcarbamate] | 96.9% |
| Cc1c(NS(C)(=O)=O)cccc1N(Cc1ccccc1)Cc1ccc(Oc2ccc(CCC(=O)OCc3ccccc3)cc2)cc1 [Example 98, benzyl 3-(4-{4-[(benzyl{2-methyl-3-[(methylsulfonyl)amino]phenyl}amino)methyl]phenoxy}phenyl)propanoate] | 87.4% |
| Cc1c(NS(C)(=O)=O)cccc1N(Cc1ccccc1)Cc1ccc(Oc2cccc(OC3CCOC3=O)c2)cc1 (stereo not shown) [Example 112, N-{3-[benzyl(4-{3-[(2-oxotetrahydrofuran-3-yl)oxy]phenoxy}benzyl)amino]-2-methylphenyl}methanesulfonamide] | 96.9% |
| Cc1c(NS(C)(=O)=O)cccc1N(Cc1ccccc1)Cc1ccc(Oc2cccc(OC(CCO)C(=O)O)c2)cc1 (stereo not shown) [Example 113, 2-(3-{4-[(benzyl{2-methyl-3-[(methylsulfonyl)amino]phenyl}amino)methyl]phenoxy}phenoxy)-4-hydroxybutanoic acid] | 96.4% |
| Cc1c(NS(C)(=O)=O)cccc1N(Cc1ccccc1)Cc1ccc(Oc2cccc(OCCCCC(=O)O)c2)cc1 [Example 117, 5-(3-{4-[(benzyl{2-methyl-3-[(methylsulfonyl)amino]phenyl}amino)methyl]phenoxyl}phenoxy)pentanoic acid] | 98.1% |
| CC(=O)c1cccc(Oc2ccc(CN(Cc3ccc(F)cc3F)c3cccc(NS(C)(=O)=O)c3C)cc2)c1 [Example 140, N-{3-[[4-(3-acetylphenoxy)benzyl](2,4-difluorobenzyl)amino]-2-methylphenyl}methanesulfonamide] | 88.1% |
| CCOc1ccc(CN(Cc2ccc(F)cc2F)c2cccc(NS(C)(=O)=O)c2C)cc1 [Example 142, N-{3-[(2,4-difluorobenzyl)(4-ethoxybenzyl)amino]-2-methylphenyl}methanesulfonamide] | 90.4% |
| Cc1c(NS(C)(=O)=O)cccc1N(Cc1ccccc1)Cc1ccc(-c2ccccc2C#N)cc1 [Example 146, N-(3-{benzyl[(2′-cyano-1,1′-biphenyl-4-yl)methyl]amino}-2-methylphenyl)methanesulfonamide] | 28.1% |
| Cc1c(NS(C)(=O)=O)cccc1N(Cc1ccc(OCc2ccc3c(c2)OCO3)cc1)Cc1ccc(F)cc1F [Example 156, N-{3-[[4-(1,3-benzodioxol-5-ylmethoxy)benzyl](2,4-difluorobenzyl)amino]-2-methylphenyl}methanesulfonamide] | 94.9% |
| Cc1c(NS(C)(=O)=O)cccc1N(Cc1ccc(OCc2cc3c(cc2Cl)OCO3)cc1)Cc1ccc(F)cc1F [Example 157, N-{3-[{4-[(6-chloro-1,3-benzodioxol-5-yl)methoxy]benzyl}(2,4-difluorobenzyl)amino]-2-methylphenyl}methanesulfonamide] | 91.8% |
| Cc1c(NS(C)(=O)=O)cccc1N(Cc1ccc(OCCc2ccccc2)cc1)Cc1ccc(F)cc1F [Example 158, N-(3-{(2,4-difluorobenzyl)[4-(2-phenylethoxy)benzyl]amino}-2-methylphenyl)methanesulfonamide] | 93.1% |
| Cc1c(NS(C)(=O)=O)cccc1N(Cc1ccc(Oc2cccc(OC[C@@H]3C[C@@H](O)CC(=O)O3)c2)cc1)Cc1ccc(F)cc1F [Example 231, N-(3-((2,4-difluorobenzyl)(4-(3-(((2S,4R)-6-oxo-4-hydroxytetrahydro-2H-pyran-2-yl)methoxy)phenoxy)benzyl)amino)-2-methylphenyl)methanesulfonamide] | 96% |
| CCOC(=O)CCCOc1ccc(Oc2ccc(CN(Cc3ccccc3)c3cccc(NS(C)(=O)=O)c3C)cc2)cc1 [Example 232, ethyl 4-(4-{4-[(benzyl{2-methyl-3-[(methylsulfonyl)amino]phenyl}amino)methyl]phenoxy}phenoxy)butanoate] | 94.9% |
| Cc1c(NS(C)(=O)=O)cccc1N(Cc1ccccc1)Cc1ccc(Oc2ccc(OCCCC(=O)O)cc2)cc1 [Example 233, 4-(4-{4-[(benzyl{2-methyl-3-[(methylsulfonyl)amino]phenyl}amino)methyl]phenoxy}phenoxy)butanoic acid] | 96.8% |
| Cc1c(NS(C)(=O)=O)cccc1N(Cc1ccccc1)Cc1ccc(Oc2ccc(OCCCCC(=O)O)cc2)cc1 [Example 234, 5-(4-{4-[(benzyl{2-methyl-3-[(methylsulfonyl)amino]phenyl}amino)methyl]phenoxy}phenoxy)pentanoic acid] | 96.1% |
| CCc1ccc(Oc2ccc(CN(Cc3ccc(F)cc3F)c3cccc(NS(C)(=O)=O)c3C)cc2)cc1OCC(=O)O [Example 236, (5-{4-[((2,4-difluorobenzyl){2-methyl-3-[(methylsulfonyl)amino]phenyl}amino)methyl]phenoxy}-2-ethylphenoxy)acetic acid] | 96.1% |
